Biological target: Beta-3 Adrenergic Receptor (Homo sapiens (Human), UniProt P13945)
Assay: Homogeneous Time-Resolved Fluorescence (HTRF) cAMP antagonist assay, IC50 determination
Type: cell-based
Conditions: CHO-K1 cells stably expressing recombinant receptor, isoproterenol at EC90
Procedure, shortened: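 Antagonist mode: isoproterenol at its predetermined EC90 added after compound to recombinant CHO-K1 cells in IBMX-containing PBS, 1 h, room temperature. Compounds tested as 5-fold, 10-point dilutions, top final typically 10 or 100 μM. HTRF signal converted to cAMP via standard curve, giving IC50.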

Beta-3 Adrenergic Receptor, sequence (P13945 whole entry, species assumed): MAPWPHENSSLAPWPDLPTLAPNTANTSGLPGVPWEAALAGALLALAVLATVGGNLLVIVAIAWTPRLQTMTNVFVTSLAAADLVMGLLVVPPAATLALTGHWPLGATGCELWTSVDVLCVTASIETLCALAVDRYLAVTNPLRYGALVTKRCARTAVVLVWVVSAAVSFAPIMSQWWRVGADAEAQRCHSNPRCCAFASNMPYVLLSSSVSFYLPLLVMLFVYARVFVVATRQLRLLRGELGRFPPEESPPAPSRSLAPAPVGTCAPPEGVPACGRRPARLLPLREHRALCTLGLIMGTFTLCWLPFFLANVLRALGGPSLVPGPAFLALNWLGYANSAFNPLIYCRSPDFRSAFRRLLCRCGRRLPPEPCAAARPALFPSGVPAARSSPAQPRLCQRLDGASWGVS

Point of comparison: `CC(C)CCNS(=O)(=O)c1cccc(OC[C@@H](O)CNC2COC3(CCN(S(=O)(=O)c4ccc5ccccc5c4)CC3)C2)c1` (stereo partly drawn) [Compound 98, 3-((2S)-2-hydroxy-3-(8-(naphthalen-2-ylsulfonyl)-1-oxa-8-azaspiro[4.5]decan-3-ylamino)propoxy)-N-isopentylbenzenesulfonamide], IC50 0.0711 µM. Against it:
- CNS(=O)(=O)c1cccc(OC[C@@H](O)CNC2COC3(CCN(S(=O)(=O)c4ccc(N(C)C)nc4)CC3)C2)c1 (stereo partly drawn) [Compound 422, 3-((2S)-3-(8-(6-(dimethylamino)pyridin-3-ylsulfonyl)-1-oxa-8-azaspiro[4.5]decan-3-ylamino)-2-hydroxypropoxy)-N-methylbenzenesulfonamide] — 4.3-fold lower, 0.0167 µM
- CCNS(=O)(=O)c1cccc(OC[C@@H](O)CNC2COC3(CCN(S(=O)(=O)c4cccc(Cl)c4)CC3)C2)c1 (stereo partly drawn) [Compound 224, 3-((2S)-3-(8-(3-chlorophenylsulfonyl)-1-oxa-8-azaspiro[4.5]decan-3-ylamino)-2-hydroxypropoxy)-N-ethylbenzenesulfonamide] — 2.1-fold lower, 0.0331 µM
- CNS(=O)(=O)c1cccc(OC[C@@H](O)CN[C@H]2COC3(CCN(S(=O)(=O)c4cc5c(nc4C)OCCN5C)CC3)C2)c1 [Compound 466, 3-((S)-3-((R)-8-(1,6-dimethyl-2,3-dihydro-1H-pyrido[2,3-b][1,4]oxazin-7-ylsulfonyl)-1-oxa-8-azaspiro[4.5]decan-3-ylamino)-2-hydroxypropoxy)-N-methylbenzenesulfonamide] — within 1.5-fold, 0.101 µM
- CCNS(=O)(=O)c1cccc(OC[C@@H](O)CNC2COC3(CCN(S(=O)(=O)c4cccc(-c5ccc(S(N)(=O)=O)cc5)c4)CC3)C2)c1 (stereo partly drawn) [Compound 211, 3′-(3-((S)-3-(3-(N-ethylsulfamoyl)phenoxy)-2-hydroxypropylamino)-1-oxa-8-azaspiro[4.5]decan-8-ylsulfonyl)biphenyl-4-sulfonamide] — 4.3-fold lower, 0.0165 µM
- CN1CCOc2ncc(S(=O)(=O)N3CCC4(CC3)C[C@@H](NC[C@H](O)COc3cccc(S(=O)(=O)N[C@H]5CCCC[C@@H]5O)c3)CO4)cc21 [Compound 431, 3-((S)-2-hydroxy-3-((R)-8-(1-methyl-2,3-dihydro-1H-pyrido[2,3-b][1,4]oxazin-7-ylsulfonyl)-1-oxa-8-azaspiro[4.5]decan-3-ylamino)propoxy)-N-((1S,2S)-2-hydroxycyclohexyl)benzenesulfonamide] — 16-fold higher, 1.16 µM
- CNS(=O)(=O)c1cccc(OC[C@@H](O)CNC2COC3(CCN(S(=O)(=O)c4cccc(-c5cn(C)nc5C(F)(F)F)c4)CC3)C2)c1 (stereo partly drawn) [Compound 62, 3-((2S)-2-hydroxy-3-(8-(3-(1-methyl-3-(trifluoromethyl)-1H-pyrazol-4-yl)phenylsulfonyl)-1-oxa-8-azaspiro[4.5]decan-3-ylamino)propoxy)-N-methylbenzenesulfonamide] — 1.6-fold lower, 0.0449 µM
- O=S(=O)(NCCF)c1cccc(OC[C@@H](O)CN[C@H]2COC3(CCN(S(=O)(=O)c4ccc5ncccc5c4)CC3)C2)c1 [Compound 393, N-(2-fluoroethyl)-3-((S)-2-hydroxy-3-((R)-8-(quinolin-6-ylsulfonyl)-1-oxa-8-azaspiro[4.5]decan-3-ylamino)propoxy)benzenesulfonamide] — 2-fold higher, 0.141 µM
- O=S(=O)(NCCO)c1cccc(OC[C@@H](O)CN[C@H]2COC3(CCN(S(=O)(=O)c4cnc5cc[nH]c5c4)CC3)C2)c1 [Compound 521, 3-((S)-3-((R)-8-(1H-pyrrolo[3,2-b]pyridin-6-ylsulfonyl)-1-oxa-8-azaspiro[4.5]decan-3-ylamino)-2-hydroxypropoxy)-N-(2-hydroxyethyl)benzenesulfonamide] — within 1.5-fold, 0.0983 µM
- CNS(=O)(=O)c1cccc(OC[C@@H](O)CN[C@H]2COC3(CCN(S(=O)(=O)c4cnc5c(c4)OCCO5)CC3)C2)c1 [Compound 480, 3-((S)-3-((R)-8-(2,3-dihydro-[1,4]dioxino[2,3-b]pyridin-7-ylsulfonyl)-1-oxa-8-azaspiro[4.5]decan-3-ylamino)-2-hydroxypropoxy)-N-methylbenzenesulfonamide] — within 1.5-fold, 0.0753 µM
- CNS(=O)(=O)c1cccc(OC[C@@H](O)CNC2COC3(CCN(S(=O)(=O)c4cccc(Oc5ccccc5)c4)CC3)C2)c1 (stereo partly drawn) [Compound 124, 3-((2S)-2-hydroxy-3-(8-(3-phenoxyphenylsulfonyl)-1-oxa-8-azaspiro[4.5]decan-3-ylamino)propoxy)-N-methylbenzenesulfonamide] — 2-fold lower, 0.0362 µM
- CNS(=O)(=O)c1cccc(OC[C@@H](O)CNC2COC3(CCN(S(=O)(=O)c4cccc(-c5ccc(CNC(=O)C(N)=O)cc5)c4)CC3)C2)c1 (stereo partly drawn) [Compound 354, N^1-((3′-(3-((S)-2-hydroxy-3-(3-(N-methylsulfamoyl)phenoxy)propylamino)-1-oxa-8-azaspiro[4.5]decan-8-ylsulfonyl)biphenyl-4-yl)methyl)oxalamide] — 2-fold lower, 0.0352 µM
- Cc1nc2cc(S(=O)(=O)N3CCC4(CC3)C[C@@H](NC[C@H](O)COc3cccc(S(N)(=O)=O)c3)CO4)cnc2[nH]1 [Compound 559, 3-((S)-2-hydroxy-3-((R)-8-(2-methyl-3H-imidazo[4,5-b]pyridin-6-ylsulfonyl)-1-oxa-8-azaspiro[4.5]decan-3-ylamino)propoxy)benzenesulfonamide] — 2-fold lower, 0.0347 µM
- NS(=O)(=O)c1cccc(OC[C@@H](O)CN[C@H]2COC3(CCN(S(=O)(=O)c4cnc5cc[nH]c5c4)CC3)C2)c1 [Compound 532, 3-((S)-3-((R)-8-(1H-pyrrolo[3,2-b]pyridin-6-ylsulfonyl)-1-oxa-8-azaspiro[4.5]decan-3-ylamino)-2-hydroxypropoxy)benzenesulfonamide] — 5.6-fold lower, 0.0127 µM
- CNS(=O)(=O)c1cccc(OC[C@@H](O)CN[C@H]2COC3(CCN(S(=O)(=O)c4cccc(-c5ccc(CNC(C)C)cc5)c4)CC3)C2)c1 [Compound 362, 3-((S)-2-hydroxy-3-((R)-8-(4′-((isopropylamino)methyl)biphenyl-3-ylsulfonyl)-1-oxa-8-azaspiro[4.5]decan-3-ylamino)propoxy)-N-methylbenzenesulfonamide] — 2.6-fold lower, 0.0275 µM
- CNS(=O)(=O)c1cccc(OC[C@@H](O)CN[C@H]2COC3(CCN(S(=O)(=O)c4cnc5ccc(C)cc5c4O)CC3)C2)c1 [Compound 533, 3-((S)-2-hydroxy-3-((R)-8-(4-hydroxy-6-methylquinolin-3-ylsulfonyl)-1-oxa-8-azaspiro[4.5]decan-3-ylamino)propoxy)-N-methylbenzenesulfonamide] — 2.9-fold lower, 0.0244 µM
- Cc1n[nH]c2ncc(S(=O)(=O)N3CCC4(CC3)C[C@@H](NC[C@H](O)COc3cccc(S(N)(=O)=O)c3)CO4)cc12 [Compound 564, 3-((S)-2-hydroxy-3-((R)-8-(3-methyl-1H-pyrazolo[3,4-b]pyridin-5-ylsulfonyl)-1-oxa-8-azaspiro[4.5]decan-3-ylamino)propoxy)benzenesulfonamide] — 2.6-fold lower, 0.027 µM
- CNS(=O)(=O)c1cccc(OC[C@@H](O)CNC2COC3(CCN(S(=O)(=O)c4cccc(-c5ccnc(C)c5)c4)CC3)C2)c1 (stereo partly drawn) [Compound 107, 3-((2S)-2-hydroxy-3-(8-(3-(2-methylpyridin-4-yl)phenylsulfonyl)-1-oxa-8-azaspiro[4.5]decan-3-ylamino)propoxy)-N-methylbenzenesulfonamide] — 6.5-fold lower, 0.0109 µM
- Cc1ccc(F)c(S(=O)(=O)N2CCC3(CC2)CC(NC[C@H](O)COc2cccc(S(=O)(=O)NCCCN(C)C)c2)CO3)c1 (stereo partly drawn) [Compound 309, N-(3-(dimethylamino)propyl)-3-((2S)-3-(8-(2-fluoro-5-methylphenylsulfonyl)-1-oxa-8-azaspiro[4.5]decan-3-ylamino)-2-hydroxypropoxy)benzenesulfonamide] — 42-fold higher, 3 µM

Source: US11987588B2, “Modulators of the beta-3 adrenergic receptor useful for the treatment or prevention of heart failure and disorders related thereto” (Arena Pharmaceuticals, Inc., priority 2017, dated 2024)
